Assay [1] has as its system human mitochondrial energy metabolism genes. Kind of assay: Transcriptional profiling of mitochondrial energy metabolism genes in diabetic cardiomyocytes. As to conditions: diabetic drug plus rescue molecule Coenzyme Q10 (T+R) vs untreated (UT). The assay is classed as cell-based. The procedure: Human cardiomyocytes were subject to conditions simulating an diabetic environment experienced by the disease-relevant cells in vivo. Specifically, the cells were exposed to hyperglycemic conditions and hyperlipidemia conditions. The hyperglycemic condition was induced by culturing cells in media containing 22 mM glucose. The hyperlipidemia condition was induced by culturing the cells in media containing 1 mM L-carnitine, 0.7 mM Oleic acid and 0.7 mM Linoleic acid. […]
Cell samples from each condition with each perturbation treatment were collected at various times following treatment, including after 6 hours of treatment. For certain conditions, media samples were also collected and analyzed.
iProfiling of changes in total cellular protein expression by quantitative proteomics was performed for cell and media samples collected for each condition and with each “environmental perturbation”, i.e, diabetic drug treatment, Coenzyme Q10 treatment or both, using the techniques described above in the detailed description. […] Following data collection (Ct), the final fold change over control was determined using the δCt method as outlined in manufacturer's protocol. […] Functional assays such as Oxygen consumption rate OCR were measured by employing the Seahorse analyzer essentially as recommended by the manufacturer. […]

The test system of a further assay is GPAT1. Kind of assay: Western blotting of GPAT1 in cardiomyocytes. The assay is classed as cell-based, Human. As to conditions: hyperglycemia conditioned cardiomyocytes, diabetic drug plus Coenzyme Q10 (T+R). The procedure: (§1) Human cardiomyocytes were subject to conditions simulating an diabetic environment experienced by the disease-relevant cells in vivo. Specifically, the cells were exposed to hyperglycemic conditions and hyperlipidemia conditions. The hyperglycemic condition was induced by culturing cells in media containing 22 mM glucose. The hyperlipidemia condition was induced by culturing the cells in media containing 1 mM L-carnitine, 0.7 mM Oleic acid and 0.7 mM Linoleic acid.
(§2) The cell model comprising the above-mentioned cells, wherein the cells were exposed to each condition described above, was additionally “interrogated” by exposing the cells to an “environmental perturbation” by treating with a diabetic drug (T) which is known to cause cardiotoxicity, a rescue molecule (R) or both the diabetic drug and the rescue molecule (T+R). Specifically, the cells were treated with diabetic drug; or treated with rescue molecule Coenzyme Q10 at 0, 50 µM, or 100 µM; or treated with both of the diabetic drug and the rescue molecule Coenzyme Q10.
(§3) Protein expression levels of GPAT1 and TAZ for each condition and each treatment were tested with western blotting.
Background: A western blot detects proteins with antibodies after separation by electrophoresis.

Another assay concerns TAZ. Kind of assay: Western blotting of TAZ in cardiomyocytes. Type of assay: cell-based, Human. As to conditions: hyperglycemia conditioned cardiomyocytes, diabetic drug plus Coenzyme Q10 (T+R). The procedure:
as §1, §2, §3

The test system of assay [2] is HUVEC cells. The experiment in a line: Endothelial morphology of HUVEC cultures. The assay is classed as cell-based, Human. As to conditions: 24 hours. The procedure: Effect of CoQ10 on endothelial morphology: Human umbilical vein endothelial cells (HUVEC cells) were treated for 24 hours with a range of concentrations of CoQ10. Drug was applied to confluent cells that closely resemble ‘normal’ cells and also to sub-confluent cells that more closely represent the angiogenic phenotype of proliferating cells. […] The response of sub-confluent endothelial cells to CoQ10 diverged from the confluent cell response (FIG. 52B).

In assay [3] the test system is HUVEC cells. The experiment in a line: HUVEC apoptosis (annexin V/propidium iodide positive cells, flow cytometry). Type of assay: cell-based, Human. As to conditions: for propidium iodide positive apoptotic cells: 24 hours. The procedure: (§4) Methods: Human umbilical vein endothelial cell (HUVEC) fate decisions that modulate the angiogenic phenotype were examined in the presence of 100 or 1500 μM CoQ10 or excipient and compared to untreated control cells. Endothelial cell fate assays for apoptosis, proliferation, migration and 3-D tube formation within MATRIGEL® were performed.
(§5) To assess the potential effects of CoQ10 on endothelial migration, HUVEC migration was examined 5 hours post-cell clearance, in an endothelial scratch assay. […] In order to determine if the CoQ10 anti-tumor activity is due to effects on endothelial sprouting angiogenesis, we examined endothelial tube formation in 3-D MATRIGEL® cultures over time. Addition of excipient in both the gel and overlying media impaired tube formation compared to control.
CoQ10 has divergent effects on endothelial cell survival: Confluent and sub-confluent cultures of HUVEC cells were treated for 24 hours with 100 or 1500 μM CoQ10 and assayed for propidium iodide positive apoptotic cells. The results are shown in FIGS. 53A and 53B, respectively.
For orientation: Flow cytometry measures light scatter and fluorescence of single cells or particles in a stream.

Assay [4] concerns HUVEC cells. Kind of assay: HUVEC proliferation (propidium iodide incorporation, G2/M phase). As to conditions: sub-confluent HUVEC, 72 hours, 100 or 1500 μM CoQ10. Type of assay: cell-based, Human. The procedure: as §4
CoQ10 decreases endothelial cell numbers and proliferation: Sub-confluent cultures of HUVEC cells were treated for 72 hours with 100 or 1500 μM CoQ10 and assayed for both cell numbers (FIG. 54A) and proliferation (FIG. 54B) using a propidium iodide incorporation assay (detects G2/M phase DNA).

The subject of assay [5] is HUVEC cells. The experiment in a line: HUVEC migration, endothelial scratch assay. Type of assay: cell-based, Human. As to conditions: for closure of the cleared area (scratch assay): confluent HUVEC. The procedure: as §4, §5
CoQ10 decreases endothelial cell migration: HUVEC cells were grown to confluence tested for migration using the ‘scratch’ assay. 100 or 1500 μM CoQ10 was applied at the time of scratching and closure of the cleared area was monitored over 48 hours.

In assay [6] the test system is HUVEC cells. Kind of assay: Reactive oxygen species (ROS) generation in HUVEC under normoxia and hypoxia. Type of assay: cell-based, Human. As to conditions: subconfluent and confluent HUVEC, normoxic or hypoxic, 0, 100 or 1500 μM CoQ10. The procedure:
The response of HUVEC cells to normoxia and hypoxia in the presence of absence of CoQ10 was assessed. Specifically, HUVEC cells were grown in subconfluent and confluent cultures under normoxic or hypoxic conditions as described herein. The cells were also exposed to 0, 100, or 1500 μM CoQ10. Nitric oxide (NO) and reactive oxygen species (ROS) levels were determined using methods provided herein.

In the next assay the test system is caspase 3. The experiment in a line: Caspase 3 activation in endothelial cells. The assay is classed as cell-based. The source says: Angiogenesis is a key enabling feature of tumor progression that provides oxygen and nutrients that are required for tumor cell growth. We have investigated the anti-angiogenic properties of CoQ10, an anti-tumor drug that is currently under investigation in human studies of cancer progression.

A further assay has as its system Bcl2. As to conditions: melanoma cell, in the presence of VEGF; cited from earlier work.
[7] abbreviates: concentration not stated (summary).

Each structure is given as a SMILES string. “Also recorded” adds a separate entry of the source.

As to `COC1=C(OC)C(=O)C(C/C=C(\C)CC/C=C(\C)CC/C=C(\C)CC/C=C(\C)CC/C=C(\C)CC/C=C(\C)CC/C=C(\C)CC/C=C(\C)CC/C=C(\C)CCC=C(C)C)=C(C)C1=O` [CoQ10, Coenzyme Q10], the “transcriptional network and expression of human mitochondrial energy metabolism genes” value in assay [1] (listed as Coenzyme Q10) was “normalize gene expression and transcription”; in [1] (listed as rescue molecule) it was “normalizes gene expression”. Also, in the assay with GPAT1, the “protein expression level of GPAT1” value was “normalized”. The “protein expression level of TAZ” value in the assay on TAZ was “normalized”. Also, the endothelial morphology result in the assay on HUVEC cells [2] (confluent cultures, 5000 μM) is “subtle increase in rounded cells”; with HUVEC cells [2] (confluent cultures, increasing concentrations of CoQ10), “closer association, elongation and alignment of ECs”; in the assay on HUVEC cells [2] (sub-confluent cultures, 1000 μM CoQ10 and above) it was “visibly unhealthy”. For the same compound, the visible cell death entry with HUVEC cells [2] (sub-confluent cultures, increasing concentrations of CoQ10) is recorded as “Increased cell death”. Moreover, the “HUVEC apoptosis (annexin V/propidium iodide positive cells)” value in the assay with HUVEC cells [3] (1500 μM CoQ10, compared to excipient or control cells) is listed as “increase”. In addition, in the assay with HUVEC cells [3] (setting [7]), the “apoptosis / cell death of sub-confluent (angiogenic/proliferating) endothelial cells” value is listed as “increases apoptosis; also recorded: selectively induces cell death”. For the same compound, in the assay with HUVEC cells [3] (concentration not stated or low doses (summary), compared to controls), the “cell death of confluent (non-proliferating) endothelial cells” value is “protective; also recorded: decreased compared to controls”. For the same compound, the “propidium iodide positive apoptotic cells” value is listed as “protective” in the assay with HUVEC cells [3] (confluent HUVEC, 100 or 1500 μM CoQ10) and “increased apoptosis” in the assay on HUVEC cells [3] (sub-confluent HUVEC, 1500 μM CoQ10). In addition, the “EC proliferation (G2/M phase cells)” value with HUVEC cells [4] was “dose-dependent effect; also recorded: potent inhibitor of endothelial proliferation; also recorded: impairs endothelial proliferation”. Also, the HUVEC migration result in the assay on HUVEC cells [5] (5 hours post-cell clearance, 100 and 1500 μM, excipient also impaired migration) is “significantly impaired”. In the assay on HUVEC cells [5] (setting [7]), the “endothelial migration in scratch assays” value is “potent inhibition of endothelial migration; also recorded: impairs endothelial migration”. Further, the “closure of the cleared area (scratch assay)” value in the assay on HUVEC cells [5] (100 μM CoQ10, monitored over 48 hours, compared to control) is given as “delayed endothelial closure”; in the assay on HUVEC cells [5] (1500 μM CoQ10, up to 48 hours), “prevented closure”. The “generation of reactive oxygen species (ROS)” value in the assay on HUVEC cells [6] is “differential dose dependent generation”. In the assay with caspase 3, the “activation of caspase 3” value is given as “induces activation of caspase 3”. The “level of Bcl2” value with Bcl2 was “decreased”.

(Values after US12437835B2, “Interrogatory cell-based assays and uses thereof” (Berg LLC, priority 2012, dated 2025).)
